From patent US20190083460A1, “ANALGESIC COMPOUNDS” (ZENO ROYALTIES & MILESTONES, LLC, priority 2016, published 2019)

Tested on: male ICR mice
Test: Formalin Paw Test
Assay type: in vivo
Settings: 30 mg/kg intraperitoneal; for Early Phase: early/acute phase (0-10 minutes) after 2% formalin into hind paw; for Late Phase: late/tonic phase (10-35 minutes) after 2% formalin into hind paw
Experimental: One test compound or the vehicle was administered to each mouse in each test group (8 mice per group). Non-fasted male ICR mice weighing 23±3 g were used. Test compounds were administered at a concentration of 3 mg/kg, 10 mg/kg, 15 mg/kg, 30 mg/kg, 60 mg/kg, 100 mg/kg, 200 mg/kg or 300 mg/kg; morphine was administered at a concentration of 5 mg/kg; and acetaminophen was administered at a concentration of 200 mg/kg. The control group received the vehicle (5% DMSO/40% PEG400/20% HPbCD/Saline). After 30 or 60 minutes, a 2% formalin solution (0.02 mL) was injected into one hind paw (sub-plantar) of each mouse. Responses were measured every 5 minutes after the formalin injection for 35 minutes.
The results in Table A are for intraperitoneal administration. In Table A, ‘A’ designates <70 licks/sec, ‘B’ designates ≥70 licks/sec and <165 licks/sec, and ‘C’ designates ≥165 licks/sec.

SMILES | Early Phase | Late Phase
NC1CC2(COC2)C1 [Compound I-1] | B (‘B’ designates ≥70 licks/sec and <165 licks/sec) | B (‘B’ designates ≥70 licks/sec and <165 licks/sec)
NC1CCCOCC1 (stereo not shown) [Compound I-4] | B (‘B’ designates ≥70 licks/sec and <165 licks/sec) | C (‘C’ designates ≥165 licks/sec)
